In article PMC3062192 (Bioorganic & medicinal chemistry letters, 2011):

Legend:
Cdk5/p25 = Cdk5/p25 (Homo sapiens, UniProt Q00535); test: Cdk5/p25 radiometric kinase inhibition assay; type: biochemical
[1] = tested on: phosphorylated tau at Serine 235 (Ptau235) in primary neurons; test: inhibition of tau phosphorylation; type: cell-based; details: rat primary neurons, 4 h at 37 °C, Ptau235 immunoblot

Chain of Cdk5/p25 (Q00535 whole entry): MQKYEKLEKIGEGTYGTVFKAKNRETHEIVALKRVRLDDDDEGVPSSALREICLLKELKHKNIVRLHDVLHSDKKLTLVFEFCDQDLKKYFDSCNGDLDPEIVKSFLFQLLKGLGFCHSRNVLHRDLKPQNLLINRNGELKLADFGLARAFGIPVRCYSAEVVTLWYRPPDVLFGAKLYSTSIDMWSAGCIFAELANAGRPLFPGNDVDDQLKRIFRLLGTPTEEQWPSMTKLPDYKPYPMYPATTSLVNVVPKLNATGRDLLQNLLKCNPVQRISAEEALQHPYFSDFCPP
Chain of Cdk5/p25 (Q15078 99-307 partner limits assumed): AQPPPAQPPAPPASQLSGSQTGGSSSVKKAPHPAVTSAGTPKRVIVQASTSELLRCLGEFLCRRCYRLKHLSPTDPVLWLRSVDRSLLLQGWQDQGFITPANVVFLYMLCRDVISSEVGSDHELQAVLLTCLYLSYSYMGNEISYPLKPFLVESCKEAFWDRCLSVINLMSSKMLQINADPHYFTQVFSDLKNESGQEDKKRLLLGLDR

Cdk5/p25 inhibitory activity (in words) (Cdk5/p25; radiometric assay)	binding ΔΔG (Cdk5/p25; calculated from the listed activities for the pair 26 and 28) [kcal/mol]	Structure (SMILES)	inhibition of tau phosphorylation (in words) [1]
abolished inhibitory activity	–	CNc1nc(Nc2cccnc2)sc1C(=O)c1ccccc1F [Compound 43]	–
–	-2.6	Nc1nc(Nc2cccnc2)sc1C(=O)c1ccccc1F [Compound 26]	dose-dependent inhibition of tau phosphorylation
